Data: patent publication US5530126A, “Process for the preparation of substituted 6-(pyrazol-3yl)-1,4-benzoxazin-3-ones” (Monsanto Company, priority 1994, dated 1996)

Experiments:
Format in all cases: in vivo
Annual bluegrass [1] = assay: Pre-emergence herbicide test; conditions: 11.21 kg/ha, read-out: % plant inhibition (Anbg)
Procedure: (§1) The tests for pre-emergence herbicide activity are conducted as follows:
(§2) Topsoil is placed in an aluminum pan and compacted to a depth of 0.95 to 1.27 cm from the top of the pan. On the top of the soil is placed a predetermined number of seeds of each of several monocotyledonous and dicotyledonous annual plant species and/or vegetative propagules of various perennial plant species. A known amount of the active ingredient dissolved or suspended in an organic solvent, e.g., acetone, or water as carrier is then applied directly to the seed bed, which is then covered with a layer of untreated topsoil to level fill the pan. After treatment, the pans are moved to a greenhouse bench where they are watered from below as needed to give adequate moisture for germination and growth.
(§3) Approximately 10-14 days (usually 11 days) after seeding and treating, the pans are observed and the results (% inhibition) are recorded.
(§4) Tables 7 and 7A below summarize the results of the pre-emergence herbicidal activity tests of compounds of this invention in weeds. The herbicidal rating shown in these tables is the percent inhibition of each plant species. The plant species usually regarded as weeds which are utilized in one set of tests, the data for which are shown in the tables, are identified by letter headings above the columns in accordance with the following legend: […]

Barnyardgrass [2] = assay: Pre-emergence herbicide test; conditions: Echinochloa crus-galli, 11.21 kg/ha, read-out: % plant inhibition (Bygr)
Procedure: as §1, §2, §3, §4

Cocklebur [3] = assay: Pre-emergence herbicide test; conditions: Xanthium strumarium, 11.21 kg/ha, read-out: % plant inhibition (Cobu)
Procedure: as §1, §2, §3, §4

Downy Brome [4] = assay: Pre-emergence herbicide test; conditions: Bromus tectorum, 11.21 kg/ha, read-out: % plant inhibition (Dobr)
Procedure: as §1, §2, §3, §4

Indian Mustard [5] = assay: Pre-emergence herbicide test; conditions: Brassica juncea, 11.21 kg/ha, read-out: % plant inhibition (Inmu)
Procedure: as §1, §2, §3, §4

Morningglory [6] = assay: Pre-emergence herbicide test; conditions: Ipomoea, 11.21 kg/ha, read-out: % plant inhibition (Mogl)
Procedure: as §1, §2, §3, §4

Seedling johnsongrass [7] = assay: Pre-emergence herbicide test; conditions: Sorghum halepense, 11.21 kg/ha, read-out: % plant inhibition (Sejg)
Procedure: as §1, §2, §3, §4

Velvetleaf [8] = assay: Pre-emergence herbicide test; conditions: Abutilon theophrasti, 11.21 kg/ha, read-out: % plant inhibition (Vele)
Procedure: as §1, §2, §3, §4

Wild buckwheat = assay: Pre-emergence herbicide test; conditions: Fallopia convolvulus, 11.21 kg/ha, read-out: % plant inhibition (Wibw)
Procedure: as §1, §2, §3, §4

Yellow nutsedge [9] = assay: Pre-emergence herbicide test; conditions: Cyperus, 11.21 kg/ha, read-out: % plant inhibition (Yens)
Procedure: as §1, §2, §3, §4

Annual bluegrass [10] = assay: Post-emergence herbicide test; conditions: 11.21 kg/ha, read-out: % plant inhibition (Anbg)
Excerpt: (§5) Topsoil is placed in aluminum pans having holes in the bottom and compacted to a depth of 0.95 to 1.27 cm from the top of the pan. A predetermined number of seeds of each of several dicotyledonous and monocotyledonous annual plant species and/or vegetative propagules for the perennial plant species are placed on the soil and pressed into the soil surface. The seeds and/or vegetative propagules are covered with soil and leveled. The pans are then placed on a bench in the greenhouse and watered from below as needed. After the plants reach the desired age (two to three weeks), each pan, is removed individually to a spraying chamber and sprayed by means of an atomizer, operating at a spray pressure of 170.3 kPa (10 psig) at the application rates noted. In the spray solution is an amount of an emulsifying agent mixture to give a spray solution or suspension which contains about 0.4% by volume of the emulsifier. The spray solution or suspension contains a sufficient amount of the candidate chemical in order to give application rates of the active ingredient corresponding to those shown in Tables 8 and 8A, while applying a total amount of solution or suspension equivalent to 1870 L/Ha (200 gallons/acre). The pans were returned to the greenhouse and watered as before and the injury to the plants as compared to the control is observed at approximately 10-14 days (usually 11 days) and in some instances observed again at 24-28 days (usually 25 days) after spraying. The post-emergent herbicidal activity shown in these tables is the percent inhibition of each plant species.

Seedling johnsongrass [11] = assay: Post-emergence herbicide test; conditions: Sorghum halepense, 11.21 kg/ha, read-out: % plant inhibition (Sejg)
Excerpt: as §5

Yellow nutsedge [12] = assay: Post-emergence herbicide test; conditions: Cyperus, 11.21 kg/ha, read-out: % plant inhibition (Yens)
Excerpt: as §5

Barnyardgrass [13] = assay: Post-emergence herbicide test; conditions: Echinochloa crus-galli, 11.21 kg/ha, read-out: % plant inhibition (Bygr)
Excerpt: as §5

Cocklebur [14] = assay: Post-emergence herbicide test; conditions: Xanthium strumarium, 11.21 kg/ha, read-out: % plant inhibition (Cobu)
Excerpt: as §5

Downy Brome [15] = assay: Post-emergence herbicide test; conditions: Bromus tectorum, 11.21 kg/ha, read-out: % plant inhibition (Dobr)
Excerpt: as §5

Indian Mustard [16] = assay: Post-emergence herbicide test; conditions: Brassica juncea, 11.21 kg/ha, read-out: % plant inhibition (Inmu)
Excerpt: as §5

Morningglory [17] = assay: Post-emergence herbicide test; conditions: Ipomoea, 11.21 kg/ha, read-out: % plant inhibition (Mogl)
Excerpt: as §5

Velvetleaf [18] = assay: Post-emergence herbicide test; conditions: Abutilon theophrasti, 11.21 kg/ha, read-out: % plant inhibition (Vele)
Excerpt: as §5

SMILES	inhibition at 11210 g/ha (Annual bluegrass [1]) [%]	inhibition at 11210 g/ha (Barnyardgrass [2]) [%]	inhibition at 11210 g/ha (Cocklebur [3]) [%]	inhibition at 11210 g/ha (Downy Brome [4]) [%]	inhibition at 11210 g/ha (Indian Mustard [5]) [%]	inhibition at 11210 g/ha (Morningglory [6]) [%]	inhibition at 11210 g/ha (Seedling johnsongrass [7]) [%]	inhibition at 11210 g/ha (Velvetleaf [8]) [%]	inhibition at 11210 g/ha (Wild buckwheat) [%]	inhibition at 11210 g/ha (Yellow nutsedge [9]) [%]	inhibition at 11210 g/ha (Annual bluegrass [10]) [%]	inhibition at 11210 g/ha (Seedling johnsongrass [11]) [%]	inhibition at 11210 g/ha (Yellow nutsedge [12]) [%]	inhibition at 11210 g/ha (Barnyardgrass [13]) [%]	inhibition at 11210 g/ha (Cocklebur [14]) [%]	inhibition at 11210 g/ha (Downy Brome [15]) [%]	inhibition at 11210 g/ha (Indian Mustard [16]) [%]	inhibition at 11210 g/ha (Morningglory [17]) [%]	inhibition at 11210 g/ha (Velvetleaf [18]) [%]
Cn1nc(-c2cc(NC(=O)C3(Br)CC3)c(Cl)cc2F)c(Cl)c1C(F)(F)F [Compound 500, cyclopropanecarboxamide,-1-bromo-N-[2-chloro-5-[4-chloro-1-methyl-5-(trifluoromethyl)-1H-pyrazol-3-yl]-4-fluorophenyl]-]	10	30	40	80	30	60	70	70	90	0	50	90	0	–	–	–	–	–	–
Cn1nc(-c2cc(F)c(Cl)cc2Cl)c(Cl)c1C(F)(F)F [Compound 84]	100	100	80	100	100	90	100	100	100	30	10	40	10	10	20	0	0	50	100
